# According to US20230059136A1, “THE COMPOUNDS AND COMPOSITIONS FOR TREATING CONDITIONS ASSOCIATED WITH NLRP ACTIVITY” (Novartis AG, priority 2018, published 2023):
# System: IL-1β production in PMA-differentiated THP-1 cells
# Test: IL-1β production in PMA-differentiated THP-1 cells stimulated with gramicidin (hTHP-1 assay containing 2% fetal bovine serum)
# Assay type: cell-based, human
# Details: Homo sapiens, THP-1, Table B1; 2% fetal bovine serum; class symbols; read-out: hTHP-1 IC50 (Average IC50 of compounds in hTHP-1 assay)
# Outline: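 IL-1β release was read by HTRF on supernatants of 50,000 PMA-primed (20 ng/ml, 16-18 h) THP-1 cells/well in 2% FBS medium. Cells saw compound for 1 h (11-point titration from 100 μM, 0.37% DMSO) before a 2 h gramicidin (5 μM) challenge.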
row,IC50,Structure (SMILES)
1,1 to 5 µM,"CC(C)c1cc(F)cc(C(C)C)c1CC(=O)N=[S@@](=O)(NC#N)c1ncc(C(C)(C)O)s1 [Example 342, (R)-N-(cyanamido(5-(2-hydroxypropan-2-yl)thiazol-2-yl)(oxo)-λ^6-sulfaneylidene)-2-(4-fluoro-2,6-diisopropylphenyl)acetamide]"
2,5 to 30 µM,"CC(C)c1cc(-c2ccc3ccccc3c2)cc(C(C)C)c1CC(=O)N=[S@](=O)(NC#N)c1cnc(C(C)(C)O)s1 [Example 345, (S)-N-(cyanamido(2-(2-hydroxypropan-2-yl)thiazol-5-yl)(oxo)-λ^6-sulfaneylidene)-2-(2,6-diisopropyl-4-(naphthalen-2-yl)phenyl)acetamide]"
3,0.2 to 1 µM,"CC(C)c1cc(-c2ccc3ccccc3c2)cc(C(C)C)c1CC(=O)N=[S@@](=O)(NC#N)c1cnc(C(C)(C)O)s1 [Example 346, (R)-N-(cyanamido(2-(2-hydroxypropan-2-yl)thiazol-5-yl)(oxo)-λ^6-sulfaneylidene)-2-(2,6-diisopropyl-4-(naphthalen-2-yl)phenyl)acetamide]"

# Same assay, conditions: Homo sapiens, THP-1, Table B2; 2% fetal bovine serum; cells printed as numeric bound; read-out: hTHP-1 IC50 (Average IC50 of compounds in hTHP-1 assay)
row,Structure (SMILES),IC50
1,"COc1cc(-c2cccc(C(C)C)c2CC(=O)N=S(=O)(NC(N)=O)c2cnc([C@@](C)(O)CO)s2)ccn1 (stereo partly drawn) [Example 354, N-((2-((S)-1,2-dihydroxypropan-2-yl)thiazol-5-yl)(oxo)(ureido)-λ^6-sulfaneylidene)-2-(2-isopropyl-6-(2-methoxypyridin-4-yl)phenyl)acetamide]",> 30 µM
2,CC(C)c1cc(C#N)cc(C(C)C)c1CC(=O)N=[S@](=O)(NC#N)c1ncc(C(C)(C)O)s1 [Example 365],> 30 µM

# Results, then the molecule that gave them:
row,IC50,Structure (SMILES)
1,> 30 µM,"CC(C)c1cc(C#N)c(F)c(C(C)C)c1CC(=O)N=[S@@](=O)(NC#N)c1cnc([C@](C)(O)CO)s1 [Example 370, N-((R)-cyanamido(2-((R)-1,2-dihydroxypropan-2-yl)thiazol-5-yl)(oxo)-λ^6-sulfaneylidene)-2-(4-cyano-3-fluoro-2,6-diisopropylphenyl)acetamide]"
2,> 30 µM,"COc1ccc(C(C)(C)O)cc1[S@](=O)(=NC(=O)Cc1c(C(C)C)cc(C#N)cc1C(C)C)NC#N [Example 377, (S)-N-(cyanamido(5-(2-hydroxypropan-2-yl)-2-methoxyphenyl)(oxo)-λ^6-sulfaneylidene)-2-(4-cyano-2,6-diisopropylphenyl)acetamide]"
3,> 30 µM,"CC(C)c1cc2ccccc2c(C(C)C)c1CC(=O)N=[S@@](N)(=O)c1cnc(C(C)(C)O)s1 [Example 389, (R)-N-(amino(2-(2-hydroxypropan-2-yl)thiazol-5-yl) (oxo)-λ^6-sulfaneylidene)-2-(1,3-diisopropylnaphthalen-2-yl)acetamide]"
4,> 30 µM,"CC(C)c1cc(C(F)F)cc(C(C)C)c1CC(=O)N=S(=O)(NC(=O)Cc1c(C(C)C)cc(C(F)F)cc1C(C)C)c1ccc(CN(C)C)nc1 (stereo not shown) [Example 390, 2-(4-(Difluoromethyl)-2,6-diisopropylphenyl)-N-((2-(4-(difluoromethyl)-2,6-diisopropylphenyl)acetamido)(6-((dimethylamino)methyl)pyridin-3-yl)(oxo)-λ^6-sulfaneylidene)acetamide]"
5,> 30 µM,"CC(C)c1cc2c(cnn2C)c(C(C)C)c1CC(=O)N=S(N)(=O)c1ncc(C(C)(C)O)s1 (stereo not shown) [Example 391, N-(Amino(5-(2-hydroxypropan-2-yl)thiazol-2-yl)(oxo)-λ^6-sulfaneylidene)-2-(4,6-diisopropyl-1-methyl-1H-indazol-5-yl)acetamide]"
6,> 30 µM,"CC(C)c1ncnc(C(C)C)c1CC(=O)N=S(N)(=O)c1cnc(C(C)(C)O)s1 (stereo not shown) [Example 392, N-(amino(2-(2-hydroxypropan-2-yl)thiazol-5-yl)(oxo)-λ^6-sulfaneylidene)-2-(4,6-diisopropylpyrimidin-5-yl)acetamide]"

# Same assay, conditions: Homo sapiens, THP-1, Table B2; 2% fetal bovine serum; class symbols; read-out: hTHP-1 IC50 (Average IC50 of compounds in hTHP-1 assay)
row,Structure (SMILES),IC50
1,"CC(C)c1cc2c(c(C(C)C)c1CC(=O)N=S(N)(=O)c1ccn(CCO)n1)OC(F)(F)O2 (stereo not shown) [Example 347, N-(amino(1-(2-hydroxyethyl)-1H-pyrazol-3-yl)(oxo)-λ^6-sulfaneylidene)-2-(2,2-difluoro-4,6-diisopropylbenzo[d][1,3]dioxol-5-yl)acetamide]",1 to 5 µM
2,"CC(C)c1cc(C#N)c(F)c(C(C)C)c1CC(=O)N=S(N)(=O)c1cnc(C(O)(CO)CO)s1 (stereo not shown) [Example 350, N-(amino(oxo)(2-(1,2,3-trihydroxypropan-2-yl)thiazol-5-yl)-λ^6-sulfaneylidene)-2-(4-cyano-3-fluoro-2,6-diisopropylphenyl)acetamide]",0.2 to 1 µM
3,"CC(C)c1cc(C#N)c(F)c(C(C)C)c1CC(=O)N=S(=O)(NC#N)c1cnc(C(O)(CO)CO)s1 (stereo not shown) [Example 360, N-(cyanamido(oxo)(2-(1,2,3-trihydroxypropan-2-yl)thiazol-5-yl)-λ^6-sulfaneylidene)-2-(4-cyano-3-fluoro-2,6-diisopropylphenyl)acetamide]",5 to 30 µM
4,"CC(C)c1cc2c(c(C(C)C)c1CC(=O)N=[S@](=O)(NC#N)c1cnc(C(C)(C)O)s1)COC2=O [Example 361, (S)-N-(cyanamido(2-(2-hydroxypropan-2-yl)thiazol-5-yl) (oxo)-λ^6-sulfaneylidene)-2-(4,6-diisopropyl-1-oxo-1,3-dihydroisobenzofuran-5-yl)acetamide]",1 to 5 µM
5,"CC(C)(O)c1ncc([S@@](=O)(=NC(=O)Cc2c3c(cc4c2CC4)CCC3)NC#N)s1 [Example 362, (R)-N-(cyanamido(2-(2-hydroxypropan-2-yl)thiazol-5-yl) (oxo)-λ^6-sulfaneylidene)-2-(2,4,5,6-tetrahydro-1H-cyclobuta [f]inden-3-yl)acetamide]",1 to 5 µM
6,"CC(C)(O)c1ncc([S@](=O)(=NC(=O)Cc2c3c(cc4c2CC4)CCC3)NC#N)s1 [Example 363, (S)-N-(cyanamido(2-(2-hydroxypropan-2-yl)thiazol-5-yl) (oxo)-λ^6-sulfaneylidene)-2-(2,4,5,6-tetrahydro-1H-cyclobuta [f]inden-3-yl)acetamide]",0.2 to 1 µM
7,"CC(C)c1cc(C#N)cc(C(C)C)c1CC(=O)N=[S@@](=O)(NC#N)c1ncc(C(C)(C)O)s1 [Example 364, (R)-N-(cyanamido(5-(2-hydroxypropan-2-yl)thiazol-2-yl) (oxo)-λ^6-sulfaneylidene)-2-(4-cyano-2,6-diisopropylphenyl) acetamide]",0.2 to 1 µM
8,"CC(C)c1cc(C#N)cc(C(C)C)c1CC(=O)N=[S@@](=O)(NC#N)c1sc(C(C)(C)O)nc1CO [Example 366, (R)-N-(cyanamido(4-(hydroxymethyl)-2-(2-hydroxypropan-2-yl)thiazol-5-yl)(oxo)-λ^6-sulfaneylidene)-2-(4-cyano-2,6-diisopropylphenyl)acetamide]",5 to 30 µM
9,"CC(C)c1cc(F)cc(C(C)C)c1CC(=O)N=[S@@](=O)(NC#N)c1sc(C(C)(C)O)nc1CO [Example 368, (R)-N-(cyanamido(4-(hydroxymethyl)-2-(2-hydroxypropan-2-yl)thiazol-5-yl)(oxo)-λ^6-sulfaneylidene)-2-(4-fluoro-2,6-diisopropylphenyl)acetamide]",0.04 to 0.2 µM

# The remaining lines, values ahead:
row,IC50,Structure (SMILES)
1,5 to 30 µM,"CC(C)c1cc(F)cc(C(C)C)c1CC(=O)N=[S@](=O)(NC#N)c1sc(C(C)(C)O)nc1CO [Example 369, (S)-N-(cyanamido(4-(hydroxymethyl)-2-(2-hydroxypropan-2-yl)thiazol-5-yl)(oxo)-λ^6-sulfaneylidene)-2-(4-fluoro-2,6-diisopropylphenyl)acetamide]"
2,5 to 30 µM,"CC(C)c1cc(C#N)c(F)c(C(C)C)c1CC(=O)N=S(=O)(NC#N)c1cnc(C(O)CO)s1 (stereo not shown) [Example 372, N-(cyanamido(2-(1,2-dihydroxyethyl)thiazol-5-yl)(oxo)-λ^6-sulfaneylidene)-2-(4-cyano-3-fluoro-2,6-diisopropylphenyl)acetamide]"
3,5 to 30 µM,"CC(C)c1cc(C#N)cc(C(C)C)c1CC(=O)N=[S@](=O)(NC#N)c1sc(C(C)(C)O)nc1CCO [Example 373, (S)-N-(cyanamido(4-(2-hydroxyethyl)-2-(2-hydroxypropan-2-yl)thiazol-5-yl)(oxo)-λ^6-sulfaneylidene)-2-(4-cyano-2,6-diisopropylphenyl)acetamide]"
4,0.04 to 0.2 µM,"CC(C)c1cc(C#N)cc(C(C)C)c1CC(=O)N=[S@@](=O)(NC#N)c1sc(C(C)(C)O)nc1CCO [Example 374, (R)-N-(cyanamido(4-(2-hydroxyethyl)-2-(2-hydroxypropan-2-yl)thiazol-5-yl)(oxo)-λ^6-sulfaneylidene)-2-(4-cyano-2,6-diisopropylphenyl)acetamide]"
5,5 to 30 µM,"CC(C)c1cc(C#N)cc(C(C)C)c1CC(=O)N=[S@](=O)(NC#N)c1nc(CO)c(C(C)(C)O)s1 [Example 375, (S)-N-(cyanamido(4-(hydroxymethyl)-5-(2-hydroxypropan-2-yl)thiazol-2-yl)(oxo)-λ^6-sulfaneylidene)-2-(4-cyano-2,6-diisopropylphenyl)acetamide]"
6,0.2 to 1 µM,"CC(C)c1cc(C#N)cc(C(C)C)c1CC(=O)N=[S@@](=O)(NC#N)c1nc(CO)c(C(C)(C)O)s1 [Example 376, (R)-N-(cyanamido(4-(hydroxymethyl)-5-(2-hydroxypropan-2-yl)thiazol-2-yl)(oxo)-λ^6-sulfaneylidene)-2-(4-cyano-2,6-diisopropylphenyl)acetamide]"
7,5 to 30 µM,"COc1ccc(C(C)(C)O)cc1[S@@](=O)(=NC(=O)Cc1c(C(C)C)cc(C#N)cc1C(C)C)NC#N [Example 378, (R)-N-(cyanamido(5-(2-hydroxypropan-2-yl)-2-methoxyphenyl)(oxo)-λ^6-sylfaneylidene)-2-(4-cyano-2,6-diisopropylphenyl)acetamide]"
8,5 to 30 µM,"CNCc1ccc(S(N)(=O)=NC(=O)Cc2c(-c3ccccc3)ccc3c2CCC3)cc1 (stereo not shown) [Example 379, N-(amino(4-((methylamino)methyl)phenyl)(oxo)-λ^6-sulfaneylidene)-2-(5-phenyl-2,3-dihydro-1H-inden-4-yl)acetamide]"
